# Experiments:
# D(3) dopamine receptor [1] = biological target: T1, D(3) dopamine receptor (Homo sapiens, UniProt P35462); experiment: Displacement of [3H]-spiperone from human dopamine D3 receptor expressed in CHO-K1 cell membranes after 90 mins by liquid scintillation counter method
# D(2) dopamine receptor [2] = biological target: T2, D(2) dopamine receptor (Homo sapiens, UniProt P14416); experiment: Displacement of [3H]-spiperone from human dopamine D2 receptor expressed in CHO-K1 cell membranes after 120 mins by liquid scintillation counter method
# [3] = biological target: Voltage-gated inwardly rectifying potassium channel KCNH2 (Homo sapiens, UniProt Q12809); experiment: Inhibition of human ERG tail current expressed in HEK293 cells after 5 mins by patch clamp assay
# [4] = biological target: T3, Muscarinic acetylcholine receptor M1 (Homo sapiens, UniProt P11229); experiment: Antagonist activity at recombinant human muscarinic M1 receptor expressed in CHO-K1 cells assessed as inhibition of acetylcholine induced calcium mobilization preincubated for 10 mins followed by acetylcholine addition measured after 1 hr by fluo-4 AM dye-based FLIPR assay; format: functional, cell-based
# T3 sequence (P11229 whole entry): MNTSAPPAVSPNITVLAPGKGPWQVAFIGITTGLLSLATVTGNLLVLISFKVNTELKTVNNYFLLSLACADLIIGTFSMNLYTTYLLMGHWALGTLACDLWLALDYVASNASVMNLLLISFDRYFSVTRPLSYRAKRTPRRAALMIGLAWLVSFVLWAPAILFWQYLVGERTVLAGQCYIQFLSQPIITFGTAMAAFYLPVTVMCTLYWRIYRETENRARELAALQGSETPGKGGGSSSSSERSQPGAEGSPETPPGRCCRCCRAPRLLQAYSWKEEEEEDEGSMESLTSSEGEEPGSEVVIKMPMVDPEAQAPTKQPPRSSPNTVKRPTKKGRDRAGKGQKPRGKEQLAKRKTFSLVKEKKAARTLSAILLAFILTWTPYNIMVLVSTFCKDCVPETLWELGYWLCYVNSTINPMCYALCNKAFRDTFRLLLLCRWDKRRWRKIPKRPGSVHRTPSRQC
# [5] = biological target: Muscarinic acetylcholine receptor M3 (Homo sapiens, UniProt P20309); experiment: Antagonist activity at recombinant human muscarinic M3 receptor expressed in CHO-K1 cells assessed as inhibition of acetylcholine induced calcium mobilization preincubated for 10 mins followed by acetylcholine addition measured after 1 hr by fluo-4 AM dye-based FLIPR assay; format: functional, cell-based
# [6] = Solubility of compound; format: physicochemical
# Cytochrome P450 1A2 = biological target: T4, Cytochrome P450 1A2 (Homo sapiens, UniProt P05177); experiment: Inhibition of recombinant human CYP1A2 expressed in baculosomes preincubated for 10 mins followed by cofactor addition measured every minute for 10 mins using ethoxyresorufin as substrate by CYPEX assay
# T4 sequence (P05177 whole entry): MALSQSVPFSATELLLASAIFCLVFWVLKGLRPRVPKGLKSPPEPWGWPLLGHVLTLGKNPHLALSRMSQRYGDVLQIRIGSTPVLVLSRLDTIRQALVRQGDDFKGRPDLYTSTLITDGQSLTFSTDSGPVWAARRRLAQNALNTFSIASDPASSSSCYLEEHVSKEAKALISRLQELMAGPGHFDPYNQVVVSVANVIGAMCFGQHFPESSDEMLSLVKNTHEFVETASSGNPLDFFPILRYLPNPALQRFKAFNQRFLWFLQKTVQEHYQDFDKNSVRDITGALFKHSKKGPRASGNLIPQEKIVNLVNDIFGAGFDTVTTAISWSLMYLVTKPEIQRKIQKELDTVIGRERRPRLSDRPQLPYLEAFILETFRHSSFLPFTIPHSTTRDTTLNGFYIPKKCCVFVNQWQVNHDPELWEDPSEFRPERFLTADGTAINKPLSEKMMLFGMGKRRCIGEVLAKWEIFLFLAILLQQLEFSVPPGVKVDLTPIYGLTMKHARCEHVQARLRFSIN
# Cytochrome P450 2C9 = Cytochrome P450 2C9 (Homo sapiens, UniProt P11712); experiment: Inhibition of recombinant human CYP2C9 expressed in baculosomes preincubated for 10 mins followed by cofactor addition measured every minute for 10 mins using 7-methoxy-4-trifluoromethylcoumarin-3-acetic acid as substrate by CYPEX assay
# Cytochrome P450 2C19 = Cytochrome P450 2C19 (Homo sapiens, UniProt P33261); experiment: Inhibition of recombinant human CYP2C19 expressed in baculosomes preincubated for 10 mins followed by cofactor addition measured every minute for 10 mins using 3-butyryl-7-methoxycoumarin as substrate by CYPEX assay
# Cytochrome P450 2D6 = Cytochrome P450 2D6 (Homo sapiens, UniProt P10635); experiment: Inhibition of recombinant human CYP2D6 expressed in baculosomes preincubated for 10 mins followed by cofactor addition measured every minute for 10 mins using 4-methylaminomethyl-7-methoxycoumarin as substrate by CYPEX assay
# Cytochrome P450 3A4 [7] = biological target: T5, Cytochrome P450 3A4 (Homo sapiens, UniProt P08684); experiment: Inhibition of recombinant human CYP3A4 expressed in baculosomes preincubated for 10 mins followed by cofactor addition measured every minute for 10 mins using diethoxyflourescein as substrate by CYPEX assay
# Cytochrome P450 3A4 [8] = biological target: T5, Cytochrome P450 3A4; experiment: Inhibition of recombinant human CYP3A4 expressed in baculosomes preincubated for 10 mins followed by cofactor addition measured every minute for 10 mins using 7-benzyloxyquinoline as substrate by CYPEX assay
# [9] = Fraction absorbed in portal vein cannulated Sprague-Dawley rat model; settings: in vivo
# [10] = Volume of distribution at steady state in portal vein cannulated Sprague-Dawley rat model; settings: in vivo
# [11] = Clearance in portal vein cannulated Sprague-Dawley rat blood; settings: whole blood
# [12] = Half life in portal vein cannulated Sprague-Dawley rat model; settings: in vivo
# [13] = Fraction unbound in Sprague-Dawley rat blood
# [14] = Fraction unbound in Sprague-Dawley rat brain
# [15] = Permeability across apical to basolateral side in human Caco2 cells; settings: Caco-2, permeability
# D(4) dopamine receptor = biological target: T6, D(4) dopamine receptor (Homo sapiens, UniProt P21917); experiment: Binding affinity to dopamine D4 receptor (unknown origin)
# T6 sequence (P21917 whole entry): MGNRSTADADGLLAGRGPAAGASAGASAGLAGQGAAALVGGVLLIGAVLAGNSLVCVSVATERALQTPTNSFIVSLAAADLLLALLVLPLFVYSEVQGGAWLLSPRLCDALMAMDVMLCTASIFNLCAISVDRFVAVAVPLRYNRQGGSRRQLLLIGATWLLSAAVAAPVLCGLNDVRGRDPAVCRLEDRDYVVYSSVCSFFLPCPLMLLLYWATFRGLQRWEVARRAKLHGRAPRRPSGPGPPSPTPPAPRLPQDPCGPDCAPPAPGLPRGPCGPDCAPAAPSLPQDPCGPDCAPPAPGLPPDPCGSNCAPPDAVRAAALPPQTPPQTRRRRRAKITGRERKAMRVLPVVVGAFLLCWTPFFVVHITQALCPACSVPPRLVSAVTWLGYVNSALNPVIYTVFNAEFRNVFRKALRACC
# in vivo [16] = settings: Sprague-Dawley, rat
# in vivo [17] = settings: Sprague-Dawley, rat, po
# in vitro [18] = settings: rat, liver microsomes, CLH
# in vitro [19] = settings: human, liver microsomes, CLH
# in vitro [20] = settings: human, Caco-2
# D(2) dopamine receptor [21] = biological target: T2, D(2) dopamine receptor; experiment: Antagonist activity at human dopamine D2L receptor expressed in CHO cells assessed as inhibition of dopamine-mediated Ca+2 stimulation pretreated for 10 mins followed by addition of dopamine by fluo-4 AM dye-based FLIPR assay; format: cell-based
# D(3) dopamine receptor [22] = biological target: T1, D(3) dopamine receptor; experiment: Antagonist activity at human dopamine D3 receptor expressed in CHO-K1 cell membranes after 90 mins by [35S]GTP-gamma-S binding assay in presence of 3 nM quinelorane
# [23] = Apparent permeability across apical to basolateral side in human Caco2 cells; format: ADME, cell-based; settings: Caco-2
# [24] = Efflux ratio of apparent permeability across basolateral to apical side in human Caco2 cells; format: ADME, cell-based; settings: Caco-2
# T1 sequence (P35462 whole entry): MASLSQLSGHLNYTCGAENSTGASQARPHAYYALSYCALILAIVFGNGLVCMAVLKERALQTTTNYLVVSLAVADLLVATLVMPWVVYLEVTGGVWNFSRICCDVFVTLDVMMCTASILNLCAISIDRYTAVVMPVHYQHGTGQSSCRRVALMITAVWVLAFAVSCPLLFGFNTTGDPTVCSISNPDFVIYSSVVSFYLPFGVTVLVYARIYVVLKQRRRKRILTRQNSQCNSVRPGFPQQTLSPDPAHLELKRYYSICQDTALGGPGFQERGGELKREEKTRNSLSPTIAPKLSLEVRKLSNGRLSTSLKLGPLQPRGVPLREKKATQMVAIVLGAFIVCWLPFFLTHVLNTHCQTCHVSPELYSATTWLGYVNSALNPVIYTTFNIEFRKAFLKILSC
# T2 sequence (P14416 whole entry): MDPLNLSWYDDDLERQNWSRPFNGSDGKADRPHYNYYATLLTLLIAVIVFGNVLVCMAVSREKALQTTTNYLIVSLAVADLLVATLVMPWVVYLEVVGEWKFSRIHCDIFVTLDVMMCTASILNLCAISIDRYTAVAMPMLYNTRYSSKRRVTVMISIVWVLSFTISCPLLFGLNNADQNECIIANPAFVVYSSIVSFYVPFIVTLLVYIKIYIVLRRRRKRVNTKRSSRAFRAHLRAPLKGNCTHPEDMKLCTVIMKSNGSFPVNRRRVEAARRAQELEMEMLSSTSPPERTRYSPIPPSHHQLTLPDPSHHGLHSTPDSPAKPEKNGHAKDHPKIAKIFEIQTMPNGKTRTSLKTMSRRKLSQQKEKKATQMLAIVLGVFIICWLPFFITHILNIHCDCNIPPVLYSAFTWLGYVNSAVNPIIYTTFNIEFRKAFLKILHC
# T5 sequence (P08684 whole entry): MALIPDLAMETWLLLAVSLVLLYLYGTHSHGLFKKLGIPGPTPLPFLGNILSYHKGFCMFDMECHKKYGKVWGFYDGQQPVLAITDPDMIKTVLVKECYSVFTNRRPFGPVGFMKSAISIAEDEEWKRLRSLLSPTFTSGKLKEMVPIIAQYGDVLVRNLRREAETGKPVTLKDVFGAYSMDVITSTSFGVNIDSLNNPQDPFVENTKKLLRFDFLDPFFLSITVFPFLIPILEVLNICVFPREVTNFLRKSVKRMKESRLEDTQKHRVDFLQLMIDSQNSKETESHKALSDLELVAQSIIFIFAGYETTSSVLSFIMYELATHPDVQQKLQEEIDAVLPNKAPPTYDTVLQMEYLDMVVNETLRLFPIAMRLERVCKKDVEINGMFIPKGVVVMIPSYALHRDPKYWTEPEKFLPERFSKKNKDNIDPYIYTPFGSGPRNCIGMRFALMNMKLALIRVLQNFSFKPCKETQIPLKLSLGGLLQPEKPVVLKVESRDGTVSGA
# Chain of Cytochrome P450 2C19 (P33261 whole entry): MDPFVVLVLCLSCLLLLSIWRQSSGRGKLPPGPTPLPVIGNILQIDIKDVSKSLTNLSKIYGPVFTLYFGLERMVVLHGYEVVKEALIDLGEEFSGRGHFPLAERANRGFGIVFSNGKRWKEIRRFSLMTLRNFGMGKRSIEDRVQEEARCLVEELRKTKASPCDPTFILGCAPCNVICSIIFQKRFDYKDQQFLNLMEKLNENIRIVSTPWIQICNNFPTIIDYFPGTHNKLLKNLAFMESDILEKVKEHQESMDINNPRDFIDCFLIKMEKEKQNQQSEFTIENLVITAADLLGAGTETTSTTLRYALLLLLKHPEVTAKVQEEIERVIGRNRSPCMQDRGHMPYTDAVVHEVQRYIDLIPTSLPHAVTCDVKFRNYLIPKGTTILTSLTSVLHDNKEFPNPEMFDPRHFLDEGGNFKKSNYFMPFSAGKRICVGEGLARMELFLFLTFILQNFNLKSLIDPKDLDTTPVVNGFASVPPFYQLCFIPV
# Chain of Voltage-gated inwardly rectifying potassium channel KCNH2 (Q12809 whole entry): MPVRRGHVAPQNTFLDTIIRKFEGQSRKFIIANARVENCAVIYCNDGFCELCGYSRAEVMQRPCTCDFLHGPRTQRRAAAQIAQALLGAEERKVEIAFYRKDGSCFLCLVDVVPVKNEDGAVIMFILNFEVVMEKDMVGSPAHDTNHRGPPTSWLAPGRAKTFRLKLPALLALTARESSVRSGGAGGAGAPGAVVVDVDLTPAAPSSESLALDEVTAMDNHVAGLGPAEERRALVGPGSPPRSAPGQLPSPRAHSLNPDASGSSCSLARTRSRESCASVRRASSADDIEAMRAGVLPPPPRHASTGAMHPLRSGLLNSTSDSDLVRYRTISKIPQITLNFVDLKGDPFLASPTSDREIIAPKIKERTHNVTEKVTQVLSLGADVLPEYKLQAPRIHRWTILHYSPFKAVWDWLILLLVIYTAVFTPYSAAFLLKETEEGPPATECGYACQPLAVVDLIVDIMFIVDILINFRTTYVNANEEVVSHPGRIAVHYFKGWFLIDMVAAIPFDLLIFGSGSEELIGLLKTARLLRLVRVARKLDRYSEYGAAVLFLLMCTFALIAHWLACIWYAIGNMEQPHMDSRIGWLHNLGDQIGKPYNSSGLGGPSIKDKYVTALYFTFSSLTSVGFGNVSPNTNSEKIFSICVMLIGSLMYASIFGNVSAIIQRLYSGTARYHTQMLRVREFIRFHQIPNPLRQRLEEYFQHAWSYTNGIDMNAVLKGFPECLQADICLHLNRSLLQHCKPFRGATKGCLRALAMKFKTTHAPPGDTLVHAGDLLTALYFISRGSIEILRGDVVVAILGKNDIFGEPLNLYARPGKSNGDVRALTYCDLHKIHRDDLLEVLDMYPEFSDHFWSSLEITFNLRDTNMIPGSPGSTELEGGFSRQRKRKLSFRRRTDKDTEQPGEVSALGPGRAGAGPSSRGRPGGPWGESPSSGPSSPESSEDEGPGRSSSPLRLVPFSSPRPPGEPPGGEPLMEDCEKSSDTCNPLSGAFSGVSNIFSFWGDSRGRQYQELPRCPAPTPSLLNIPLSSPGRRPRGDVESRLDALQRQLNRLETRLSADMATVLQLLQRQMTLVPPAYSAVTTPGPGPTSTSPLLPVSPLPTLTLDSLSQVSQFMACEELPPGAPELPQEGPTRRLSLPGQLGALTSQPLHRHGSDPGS
# Chain of Cytochrome P450 2D6 (P10635 whole entry): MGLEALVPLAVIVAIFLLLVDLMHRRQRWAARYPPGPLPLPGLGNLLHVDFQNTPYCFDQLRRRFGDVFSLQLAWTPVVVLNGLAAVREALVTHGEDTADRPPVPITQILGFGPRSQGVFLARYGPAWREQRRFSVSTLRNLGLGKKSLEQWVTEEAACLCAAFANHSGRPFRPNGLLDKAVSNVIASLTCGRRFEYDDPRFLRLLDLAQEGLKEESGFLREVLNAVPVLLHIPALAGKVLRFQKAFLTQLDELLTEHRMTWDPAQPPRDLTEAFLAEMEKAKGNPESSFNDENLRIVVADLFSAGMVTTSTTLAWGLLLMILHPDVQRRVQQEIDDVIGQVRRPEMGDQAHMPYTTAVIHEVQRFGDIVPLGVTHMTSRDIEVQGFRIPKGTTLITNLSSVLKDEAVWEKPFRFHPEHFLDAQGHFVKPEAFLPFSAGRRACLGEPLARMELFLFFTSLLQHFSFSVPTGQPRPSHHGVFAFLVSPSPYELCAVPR
# Chain of Muscarinic acetylcholine receptor M3 (P20309 whole entry): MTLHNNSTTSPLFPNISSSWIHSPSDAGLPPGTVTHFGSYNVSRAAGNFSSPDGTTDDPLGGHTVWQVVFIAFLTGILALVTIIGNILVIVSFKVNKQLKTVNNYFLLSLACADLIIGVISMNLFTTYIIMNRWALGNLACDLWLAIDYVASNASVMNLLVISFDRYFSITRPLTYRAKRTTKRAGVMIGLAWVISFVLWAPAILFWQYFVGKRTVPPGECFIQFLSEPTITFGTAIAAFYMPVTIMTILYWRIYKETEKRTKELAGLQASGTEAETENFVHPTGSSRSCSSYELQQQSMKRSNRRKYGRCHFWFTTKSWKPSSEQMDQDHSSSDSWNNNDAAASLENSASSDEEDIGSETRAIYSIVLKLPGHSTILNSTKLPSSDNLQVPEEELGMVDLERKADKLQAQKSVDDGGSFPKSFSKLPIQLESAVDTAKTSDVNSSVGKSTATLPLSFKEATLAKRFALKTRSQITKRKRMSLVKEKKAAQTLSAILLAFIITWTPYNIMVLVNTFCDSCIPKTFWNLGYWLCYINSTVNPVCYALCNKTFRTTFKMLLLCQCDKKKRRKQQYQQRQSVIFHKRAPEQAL
# Chain of Cytochrome P450 2C9 (P11712 whole entry): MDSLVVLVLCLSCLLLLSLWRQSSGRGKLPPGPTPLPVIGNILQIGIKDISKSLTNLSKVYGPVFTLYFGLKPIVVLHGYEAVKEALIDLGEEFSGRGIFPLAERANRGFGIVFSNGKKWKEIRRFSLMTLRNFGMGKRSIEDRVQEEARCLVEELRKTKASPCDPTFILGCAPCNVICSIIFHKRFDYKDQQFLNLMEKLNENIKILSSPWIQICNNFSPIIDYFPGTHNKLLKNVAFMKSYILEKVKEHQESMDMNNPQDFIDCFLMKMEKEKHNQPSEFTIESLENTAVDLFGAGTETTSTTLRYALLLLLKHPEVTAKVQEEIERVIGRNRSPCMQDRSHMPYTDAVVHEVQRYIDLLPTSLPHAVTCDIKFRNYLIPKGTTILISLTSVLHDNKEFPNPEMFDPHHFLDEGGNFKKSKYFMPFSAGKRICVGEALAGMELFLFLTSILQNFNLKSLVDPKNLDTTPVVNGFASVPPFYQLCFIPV
Ki (D(3) dopamine receptor [1]) [µM],Ki (D(2) dopamine receptor [2]) [µM],Ki [4] [µM],Ki [5] [µM],IC50 (Cytochrome P450 1A2) [µM],IC50 (Cytochrome P450 2C9) [µM],IC50 (Cytochrome P450 2C19) [µM],IC50 (Cytochrome P450 2D6) [µM],IC50 (Cytochrome P450 3A4 [7]) [µM],IC50 (Cytochrome P450 3A4 [8]) [µM],Fa [9] [%],Vd [10] [L/kg],clearance [11] [mL/min/kg],half-life [12] [h],fraction unbound [13],fraction unbound [14],hepatic extraction ratio (in vivo [16]),bioavailability (in vivo [17]) [%],microsomal CLint at 0.5 µM (in vitro [18]) [µL/min/mg],SMILES,IC50 [3] [µM],further results
0.00794,0.631,1.74,1.1,> 20,> 20,> 20,> 20,> 20,> 20,5,4.2,37,2.1,0.044,0.022,0.4,3,47,Cn1c(SCCCN2CC3CCN(c4ccc(C(F)(F)F)cc4)C3C2)nnc1-c1cc[nH]c(=O)c1 (stereo in doubt; 55b),2.51,solubility [6]: 200 µg/mL; Papp A→B [15]: 4.2 ×10⁻⁶ cm/s; Ki (D(4) dopamine receptor): 15.8 µM; microsomal CLint at 0.5 µM (in vitro [19]): 33 µL/min/mg; efflux ratio (in vitro [20]): 3.8
0.00126,0.0631,0.11,0.245,> 3,> 3,> 3,> 3,> 3,> 3,79,1.1,20,1.5,0.0025,0.014,0.07,73,43,Cc1ncoc1-c1nnc(SCCCN2CC3CCN(c4ccc(C(F)(F)F)cc4F)C3C2)n1C (stereo in doubt; 8b),0.398,Ki (D(2) dopamine receptor [21]): 0.0501 µM; Ki (D(3) dopamine receptor [22]): 0.00158 µM; Papp A→B [23]: 5.5 ×10⁻⁶ cm/s; efflux ratio [24]: 0.55; microsomal CLint at 0.5 µM (in vitro [19]): 177 µL/min/mg

# Reference: ChEMBL document CHEMBL3774368, “1,2,4-Triazolyl octahydropyrrolo[2,3-b]pyrroles: A new series of potent and selective dopamine D3 receptor antagonists” (Bioorg Med Chem, 2016)
